Experimental findings from patent US12233060B2, “Inhibitors of Ataxia-Telangiectasia Mutated and Rad3-related protein kinase (ATR) for use in methods of treating cancer” (THE INSTITUTE OF CANCER RESEARCH: ROYAL CANCER HOSPITAL, priority 2016, dated 2025) are described below.

The test system of assay [1] is Arid1a+/+ and Arid1a−/− mouse embryonic stem (ES) cells. The assay can be described thus: Clonogenic survival of mouse Arid1a isogenic ES cells. The assay is classed as cell-based. To be noted: p<0.001 ANOVA. The method, then:
FIG. 2. In vitro ARID1A/ATR synthetic lethality. A. Chemical structure of VX-970. B. Western blot of ARID1A in human ARID1A isogenic HCT116 cells. C. Image of colonies in 6 well-plate clonogenic assay. HCT116 ARID1A isogenic (^+/+ and ^−/−) cell lines were exposed to increasing concentrations of the VE-821 (0, 0.1, 1 uM) and VX-970 (0, 0.01, 0.05 uM) for 14 days. D and E. Dose response clonogenic survival curve of HCT116 ARID1A isogenic (^+/+ and ^−/−) cell lines exposed to increasing concentrations of the VE-821 and VX-970 for 14 days. Error bars represent SD from triplicate experiments, ANOVA p-value of <0.0001. F. Area under curve (AUC) box whisker comparison plot for human tumor cell lines exposed to VX-970 for five days. ARID1A wild type tumor cell lines (n=15) were compared to ARID1A mutant cell lines (n=9). Student's t-test p=0.00594. G. Dose response clonogenic survival curve of mouse Arid1a isogenic ES cell lines. Experiment was performed as per (C). Error bars represent SD from triplicate experiments, ANOVA p value of <0.0001. H. Western blot of Arid1a protein expression in mouse ES Arid1a isogenic cells. […]
Short-term survival assays were performed in 384-well plates. […] Drug was added 24 h after seeding and cells were continuously exposed to the drug for five days, after which cell viability was estimated using CellTitre-Glo luminescence (Promega). […] Colonies were counted manually. […]

For assay [2], the system named is HCT116 ARID1A isogenic cells and TOV21G cells. The assay can be described thus: Anaphase bridge analysis. The assay is classed as cell-based, human. To be noted: 0.5 uM, 8 hours. The method, then: FIG. 5. ATRi effect on cell cycle progression, chromosomal instability, DNA damage and apoptosis. A. Barchart illustrating G2/M fraction in HCT116 ARID1A^+/+ and ARID1A^−/− cells synchronized in G1/early S phase by double thymidine block and released into fresh media containing DMSO or VX-970 (500 nM). The percentage of cells in G2/M was measured by FACS following PI staining. […] Cells were stained with DAPI. A minimum of 50 anaphases were scored in 3 biological replicate experiments. *p=0.023, Student's t-test. C. Bar chart illustrating frequency of anaphase bridges in TOV21G cells exposed to VX-970 (0.5 uM) or DMSO for 8 hours prior to fixation. Experiment performed as for (B). p=0.006 Student's t-test. D. Mitotic spread images from HCT116 ARID1A^+/+ and ARID1A^−/− cells following exposure to either DMSO or VX-970 (1 uM). Scale bar represents 20 um. E. Bar chart illustrating extent of chromosomal abnormalities in HCT116 ARID1A^+/+ and ARID1A^−/− cells exposed to VX-970 (1 uM). *p<0.05, Student's t-test. F. Western blot illustrating γH2AX in HCT116 ARID1A^+/+ and ARID1A^−/− cells exposed to VX-970 (0.5 uM) for the indicated time prior to cell lyses. G. Bar chart illustrating apoptotic fraction in cells exposed to increasing concentrations of VX-970 for 24 hours. Experiment as per FIG. 3I. H. Western blot illustrating PARP cleavage in HCT116 ARID1A^+/+ and ARID1A^−/− cells exposed to VX-970. […]

SMILES strings stand for the structures.

As for `CNCc1ccc(-c2cc(-c3nc(-c4ccc(S(=O)(=O)C(C)C)cc4)cnc3N)on2)cc1` [VX-970, 5-[4-(Isopropylsulfonyl)phenyl]-3-(3-{4-[(methylamino)methyl]phenyl}-1,2-oxazol-5-yl)-2-pyrazinamine], the “selective targeting of Arid1a−/− ES cells in clonogenic assays” value in assay [1] is “selectively targeted Arid1a^−/− ES cells”. Further, the “frequency of anaphase bridges” value in assay [2] is on record as “increased level of anaphase bridges”.
